Tested on: SARS-CoV-2
Assay: Antiviral activity against pseudovirus SARS-CoV-2 spike protein infected human HEK293T cells overexpressing ACE2 assessed as inhibition of viral infection incubated for 96 hrs by GFP fluorescence based method
Assay type: functional, organism-based
Details: Severe acute respiratory syndrome coronavirus 2, HEK-293T

CC1=C[C@H](O)CC(C)(C)[C@H]1/C=C/C(C)=C/C=C/C(C)=C/C=C/C=C(C)/C=C/C=C(\CO)C(=O)CC1=C(C)C[C@@H](O)CC1(C)C
IC50: 87.4 µM

— ChEMBL document CHEMBL5223129, “Antioxidant, Anti-inflammatory, and Immunomodulatory Roles of Nonvitamin Antioxidants in Anti-SARS-CoV-2 Therapy” (J Med Chem, 2022)
